The structures appear in SMILES notation. Like-named read-outs stand apart in the source and are kept apart here.

What all share (assay): SelectScreen Kinase Profiling, single point inhibition and IC50 for off-target kinases
Holding throughout (type): biochemical

For assay [1], the target named is off-target kinases (Homo sapiens, UniProt Q15418). The following applies: RPS6KA1 (RSK1), ZLYTE, ATP Km app.
Assay [2] concerns the target T1, off-target kinases (Homo sapiens, UniProt Q6PHR2).
T1 sequence (Q6PHR2 1-472): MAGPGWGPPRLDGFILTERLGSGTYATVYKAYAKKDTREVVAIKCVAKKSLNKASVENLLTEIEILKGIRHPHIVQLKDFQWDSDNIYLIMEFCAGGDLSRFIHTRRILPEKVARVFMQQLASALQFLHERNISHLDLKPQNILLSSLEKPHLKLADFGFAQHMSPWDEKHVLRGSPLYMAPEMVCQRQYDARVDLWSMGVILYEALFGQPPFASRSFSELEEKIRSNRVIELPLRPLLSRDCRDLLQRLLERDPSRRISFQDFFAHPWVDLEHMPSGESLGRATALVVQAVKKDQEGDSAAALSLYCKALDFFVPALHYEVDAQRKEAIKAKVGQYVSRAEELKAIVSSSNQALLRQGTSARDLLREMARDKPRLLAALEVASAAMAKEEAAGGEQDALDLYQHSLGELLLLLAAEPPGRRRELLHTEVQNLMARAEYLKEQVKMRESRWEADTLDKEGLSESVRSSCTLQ
The conditions noted are these: ULK3, LanthaScreen Binding. (Time-resolved FRET reads energy transfer from a long-lived donor to a nearby acceptor.)

Assay [3] concerns the target T2, off-target kinases (Homo sapiens, UniProt O94806).
T2 sequence (O94806 1-890): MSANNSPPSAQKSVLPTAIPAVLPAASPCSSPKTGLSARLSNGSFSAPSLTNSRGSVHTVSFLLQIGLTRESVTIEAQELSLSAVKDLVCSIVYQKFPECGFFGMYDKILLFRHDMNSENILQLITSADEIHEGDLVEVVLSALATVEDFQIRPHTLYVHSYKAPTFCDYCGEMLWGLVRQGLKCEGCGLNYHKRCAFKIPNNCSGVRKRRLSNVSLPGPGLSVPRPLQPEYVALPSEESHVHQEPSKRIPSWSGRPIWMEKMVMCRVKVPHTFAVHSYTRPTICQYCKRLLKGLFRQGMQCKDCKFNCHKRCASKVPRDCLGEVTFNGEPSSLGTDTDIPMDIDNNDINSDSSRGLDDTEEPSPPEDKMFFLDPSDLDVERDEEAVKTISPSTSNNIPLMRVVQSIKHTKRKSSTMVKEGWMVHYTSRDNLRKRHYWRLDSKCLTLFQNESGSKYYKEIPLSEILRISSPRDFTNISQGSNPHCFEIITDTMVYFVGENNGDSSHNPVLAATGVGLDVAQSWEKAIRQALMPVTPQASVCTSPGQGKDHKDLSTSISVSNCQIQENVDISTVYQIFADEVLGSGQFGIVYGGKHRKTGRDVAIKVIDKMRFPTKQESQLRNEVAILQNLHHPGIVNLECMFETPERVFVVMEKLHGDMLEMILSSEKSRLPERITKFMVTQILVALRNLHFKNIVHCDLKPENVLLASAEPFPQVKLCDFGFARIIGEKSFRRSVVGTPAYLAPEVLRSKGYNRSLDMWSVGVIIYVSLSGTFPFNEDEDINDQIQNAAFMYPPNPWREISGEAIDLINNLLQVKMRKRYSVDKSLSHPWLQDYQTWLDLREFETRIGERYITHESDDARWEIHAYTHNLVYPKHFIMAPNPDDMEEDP
The following applies: PRKCN (PKD3), ATP Km app, ZLYTE.

Sequence of off-target kinases (Homo sapiens, UniProt Q15418) (Q15418 whole entry): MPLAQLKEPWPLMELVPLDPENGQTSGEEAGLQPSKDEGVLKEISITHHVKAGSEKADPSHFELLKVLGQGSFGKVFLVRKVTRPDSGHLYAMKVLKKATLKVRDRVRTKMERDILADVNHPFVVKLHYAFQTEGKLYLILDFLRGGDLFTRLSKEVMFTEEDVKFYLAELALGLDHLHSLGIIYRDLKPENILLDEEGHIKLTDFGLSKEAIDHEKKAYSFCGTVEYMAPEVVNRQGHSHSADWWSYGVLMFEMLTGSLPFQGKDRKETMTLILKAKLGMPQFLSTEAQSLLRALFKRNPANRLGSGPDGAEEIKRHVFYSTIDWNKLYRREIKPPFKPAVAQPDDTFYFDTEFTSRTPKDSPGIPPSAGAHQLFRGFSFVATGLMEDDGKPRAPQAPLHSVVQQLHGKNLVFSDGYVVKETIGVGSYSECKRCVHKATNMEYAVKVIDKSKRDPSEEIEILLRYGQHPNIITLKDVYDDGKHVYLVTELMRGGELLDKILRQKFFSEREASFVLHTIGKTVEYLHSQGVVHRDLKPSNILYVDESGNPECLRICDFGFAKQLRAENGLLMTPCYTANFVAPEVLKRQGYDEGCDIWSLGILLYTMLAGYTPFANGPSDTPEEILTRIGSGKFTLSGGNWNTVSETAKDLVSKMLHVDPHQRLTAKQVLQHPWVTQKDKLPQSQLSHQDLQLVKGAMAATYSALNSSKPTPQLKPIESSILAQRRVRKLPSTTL

As usually defined, the inhibition is the relative decrease from the control value, in per cent. `N#Cc1cc(-c2ncnc(Nc3ccc(N4CCN(C5COC5)CC4)cc3)n2)ccc1OC1CCOCC1` [Compound 1, 5-(4-((4-(4-(oxetan-3-yl)piperazin-1-yl)phenyl)amino)-1,3,5-triazin-2-yl)-2-((tetrahydro-2H-pyran-4-yl)oxy)benzonitrile]: the inhibition is 15% on off-target kinases [1] (read-out: % Inhibition 1); 11% at off-target kinases [1] (read-out: % Inhibition 2); 13% on off-target kinases [1] (read-out: % Inhibition Avg); 101% on off-target kinases [2] (read-out: % Inhibition 1); 104% at off-target kinases [2] (read-out: % Inhibition 2); 102% at off-target kinases [2] (read-out: % Inhibition Avg). Further, the inhibition on off-target kinases [3] (read-out: % Inhibition 1) turned out to be 98%; at off-target kinases [3] (read-out: % Inhibition 2) it was 96%; at off-target kinases [3] (read-out: % Inhibition Avg), 97%.

These data come from patent publication US11572590B2, “Methods for evaluating tumor cell spheroids using 3D microfluidic cell culture device” (Dana-Farber Cancer Institute, Inc., priority 2017, dated 2023).
